Consider 2 substances from patent publication US11578310B2, “Method for producing CD4/CD8 double-positive T cells” (Kyoto University, priority 2016, dated 2023).

The experiment concerns hematopoietic progenitor cells induced from iPS cells or ES cells. Kind of experiment: Induction of CD4/CD8 double-positive T cells from hematopoietic progenitor cells induced from pluripotent stem cells (flow cytometry). In kind it is cell-based, human. Conditions: TKT3v 1-7 line; medium containing SB203580 alone or SDF-1α alone vs neither; FIG. 5. Here is the method:
On an ultralow-adhesion-treated 6-well plate (CORNING: #3471). TkT3V1-7. Ffl-01, Ffl-14, or KhES-3 was plated at 3×10^5 to 6×10^5 cells/well (Day 0), and the cells were cultured under hypoxic conditions (5% O2) for five days in EB medium (StemPro34 supplemented with 10 μg/ml human insulin, 5.5 μg/ml human transferrin, 5 ng/ml sodium selenite, 2 mM L-glutamine, […] α-monothioglycerol, and 50 μg/ml ascorbic acid) supplemented with 10 ng/ml BMP4, 5 ng/ml bFGF, 15 ng/ml VEGF, and 2 μM SB431542 (Day 5).
Subsequently, 50 ng/ml SCF, 30 ng/ml TPO, and 10 ng/ml Flt3L were added, and additional culture was performed for 5 to 9 days (up to Day 14).

For SDF-1α, the “induction of CD4/CD8 double-positive T cells, each agent used alone” value is “can be produced even when each of these was used alone”.
Take “4-(4-fluorophenyl)-2-(4-methylsulfonylphenyl)-5-(4-pyridyl)-1H-imidazole [SB203580]”: the “induction of CD4/CD8 double-positive T cells, each agent used alone” value is reported as “can be produced even when each of these was used alone”.
